Experiments:
GlyR α1 F108Y = GlyR α1 F108Y (Homo sapiens, UniProt P23415, F136Y); experiment: Whole-cell recording of substituted GlyR in HEK cells; format: cell-based; conditions: same cell
GlyR α1 WT = biological target: T1, GlyR α1 WT (Homo sapiens, UniProt P23415); experiment: Cell-attached single-channel recording of wild-type GlyR α1 in HEK 293 cells; format: cell-based
T1 sequence (P23415 29-457): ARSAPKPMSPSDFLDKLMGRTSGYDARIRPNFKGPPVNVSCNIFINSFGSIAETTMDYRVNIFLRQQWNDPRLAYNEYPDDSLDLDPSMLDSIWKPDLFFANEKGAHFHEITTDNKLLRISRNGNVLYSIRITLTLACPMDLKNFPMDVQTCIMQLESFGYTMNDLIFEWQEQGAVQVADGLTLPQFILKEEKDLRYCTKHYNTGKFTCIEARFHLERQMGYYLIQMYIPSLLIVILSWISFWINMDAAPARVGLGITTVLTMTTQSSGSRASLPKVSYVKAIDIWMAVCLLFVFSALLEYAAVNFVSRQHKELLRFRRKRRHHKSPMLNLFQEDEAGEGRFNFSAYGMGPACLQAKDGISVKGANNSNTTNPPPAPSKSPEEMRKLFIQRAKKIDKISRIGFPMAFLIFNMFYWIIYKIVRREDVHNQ

GlyR α1 F108Y, sequence (P23415 29-457 F136Y): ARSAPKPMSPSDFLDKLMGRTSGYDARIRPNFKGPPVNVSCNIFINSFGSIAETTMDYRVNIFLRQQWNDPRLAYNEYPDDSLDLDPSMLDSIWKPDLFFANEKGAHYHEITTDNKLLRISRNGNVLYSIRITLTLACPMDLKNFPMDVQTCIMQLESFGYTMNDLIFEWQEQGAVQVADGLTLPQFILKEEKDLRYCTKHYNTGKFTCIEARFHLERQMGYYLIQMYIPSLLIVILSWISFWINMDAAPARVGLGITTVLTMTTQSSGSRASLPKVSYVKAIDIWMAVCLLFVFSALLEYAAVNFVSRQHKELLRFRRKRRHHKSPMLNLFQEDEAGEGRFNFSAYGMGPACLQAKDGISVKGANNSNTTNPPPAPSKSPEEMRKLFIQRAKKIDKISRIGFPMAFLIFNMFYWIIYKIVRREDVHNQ

With `[Zn+2]` [Zn^2+] the “Maximal Zn^2+ (1 mM)-activated current normalised to glycine Imax (10 mM)” value (GlyR α1 F108Y) was less than 2 % Gly Imax.
In the case of `NCC(=O)O` [Glycine, glycine], the “Burst durations Area, component 1” value (GlyR α1 WT; α1 WT +30 μM Gly) is reported as 28 ± 7%, the “Burst durations Area, component 2” value (GlyR α1 WT; α1 WT +30 μM Gly) is reported as 22 ± 4% and the “Burst durations Area, component 3” value (GlyR α1 WT; α1 WT +30 μM Gly) is reported as 35 ± 5%. The “Burst durations Area, component 4” value (GlyR α1 WT; α1 WT +30 μM Gly) was 19 ± 7%, the “Burst durations τB, component 1” value (GlyR α1 WT; α1 WT +30 μM Gly) was 0.3 ± 0.06 ms and the “Burst durations τB, component 2” value (GlyR α1 WT; α1 WT +30 μM Gly) was 1.4 ± 0.6 ms. For the same compound, the “Burst durations τB, component 3” value (GlyR α1 WT; α1 WT +30 μM Gly) was 6.9 ± 2.2 ms, the “Burst durations τB, component 4” value (GlyR α1 WT; α1 WT +30 μM Gly) was 63.4 ± 14.8 ms and the “Closed times Area, component 1” value (GlyR α1 WT; α1 WT +30 μM Gly) was 44 ± 16%. The “Closed times Area, component 2” value (GlyR α1 WT; α1 WT +30 μM Gly) was 35 ± 15%, the “Closed times Area, component 3” value (GlyR α1 WT; α1 WT +30 μM Gly) was 8 ± 1% and the “Closed times Area, component 4” value (GlyR α1 WT; α1 WT +30 μM Gly) was 10 ± 2%. For the same compound, the “Closed times Area, component 5” value (GlyR α1 WT; α1 WT +30 μM Gly) was 4 ± 1%, the “Closed times τC, component 1” value (GlyR α1 WT; α1 WT +30 μM Gly) was 0.22 ± 0.03 ms and the “Closed times τC, component 2” value (GlyR α1 WT; α1 WT +30 μM Gly) was 0.90 ± 0.24 ms. The “Closed times τC, component 3” value (GlyR α1 WT; α1 WT +30 μM Gly) was 4.3 ± 1.6 ms, the “Closed times τC, component 4” value (GlyR α1 WT; α1 WT +30 μM Gly) was 109 ± 6.2 ms and the “Closed times τC, component 5” value (GlyR α1 WT; α1 WT +30 μM Gly) was 2200 ± 1000 ms. The “Open times Area, component 1” value (GlyR α1 WT; α1 WT +30 μM Gly) was 36 ± 11%, the “Open times Area, component 2” value (GlyR α1 WT; α1 WT +30 μM Gly) was 39 ± 3% and the “Open times Area, component 3” value (GlyR α1 WT; α1 WT +30 μM Gly) was 26 ± 10%. The “Open times τO, component 2” value (GlyR α1 WT; α1 WT +30 μM Gly) was 1.5 ± 0.2 ms, the “Open times τO, component 3” value (GlyR α1 WT; α1 WT +30 μM Gly) was 8.9 ± 2.1 ms and the “Open times τO, component 1” value (GlyR α1 WT; α1 WT +30 μM Gly, +60 mV pipette potential) was 0.28 ± 0.029 ms. For the same compound, the “Estimated single channel conductance” value (GlyR α1 WT; α1 WT activated by glycine) was ~ 60 pS, the “PO (open probability within clusters/bursts)” value (GlyR α1 WT; α1 WT activated by glycine) was 0.9 ± 0.03 and the “Single channel Amplitude” value (GlyR α1 WT; α1 WT activated by glycine, +60 mV pipette potential) was 4 – 5 pA. The “Single channel Amplitude” value (GlyR α1 WT; α1 WT activated by glycine, +60 mV pipette potential, listed as Gly) was 4.5 ± 0.7 pA.

Source: article PMC6685790 (Nature structural & molecular biology, 2008)
